Test results as given in patent EP2468718A1, “Cabanillasin, a new antifungal compound, produced by entomopathogenic xenorhabdus cabanillasii” (Nosopharm, priority 2010, dated 2012).
Like-named read-outs stand apart in the source and are kept apart here.

Tests used:
Assay in all cases: Antifungal susceptibility testing, NCCLS M27-A2 broth microdilution (yeasts)
Assay type in all cases: cell-based
[1] = test system: Candida Glabrata ATCC 90030; settings: Nakaseomyces glabratus, ATCC90030, read-out: % of growth inhibition
Description: (§1) Cabanillasin activity was tested against different fungal human pathogens: ascomycetes yeasts (Candida albicans ATCC 90029, Candida Glabrata ATCC 90030, Candida krusei ATCC 6258 and Candida lusitaniae CBS 6936), basidiomycetes yeasts (Cryptococcus neoformans clinical strain), ascomycetes filamentous fungi (Aspergilus fumigatus clinical strain, Fusarium oxysporum clinical strain) and zygomycetes filamentous fungi (Rhizopus oryzae environemental strain) by the M38-A microdilution method with RPMI 1640 medium (RPMI 1640, MOPS 160 mM, glucose 18 g/L, pH 7) as recommended in the […]. The NCCLS M27-A2 broth microdilution method (NCCLS) was used when yeasts were tested.
(§2) Yeasts and filamentous inoculi were prepared on YPD medium (yeast extract 10 g/L, peptone 10 g/L and glucose 20 g/L) and Malt medium (malt extract 20 g/L) respectively. The densities of inoculi were adjusted by dilution in RPMI 1640 broth to a value ranged from 5.10^2 to 5.10^3 CFU/mL for yeasts isolates and 5.10^3 to 5.10^4 CFU/mL for filamentous fungi. Microdilution trays (96 U-bottom shaped) containing 190 µL fungal inoculum were added with 10 µL Cabanillasin solution (final concentration ranging from 50 to 0.098 mg/L for all fungi). After inoculation of the trays, all microdilution trays were incubated at 35°C in ambient air. The culture absorbance was measured at 600 nm, 24 h and 48 h after the beginning of the experiments for the yeasts and 48 h and 72 h after the beginning of the experiments for filamentous fungi and Cryptococcus neoformans. The activity results correspond to a percentage of growth inhibition ((1-Abs600 nm culture with Cabanillasin)/ Abs600 nm culture without Cabanillasin) x 100.
(§3) The IC50 value is the concentration at which inhibition of growth is equal to 50%. MICs for Candida species were determined at 24 h and 48 h and corresponded to 100% of growth inhibition. Amphotericin B was provided as standard (final concentration ranging from 16 to 0.03 mg/L for all fungi). Experiments were done in duplicate.

[2] = test system: Cryptococcus neoformans clinical strain; settings: read-out: % of growth inhibition
Description: as §1, §2, §3

[3] = test system: Candida albicans ATCC 90029; settings: read-out: % of growth inhibition; for inhibition at 0.03 µg/mL: ATCC90029, 0.03 µg/mL; for inhibition at 0.06 µg/mL: ATCC90029, 0.06 µg/mL; for inhibition at 0.12 µg/mL: ATCC90029, 0.12 µg/mL; for inhibition at 0.25 µg/mL: ATCC90029, 0.25 µg/mL; for inhibition at 0.5 µg/mL: ATCC90029, 0.5 µg/mL; for inhibition at 1 µg/mL: ATCC90029, 1 µg/mL; for inhibition at 2 µg/mL: ATCC90029, 2 µg/mL; for inhibition at 4 µg/mL: ATCC90029, 4 µg/mL; for inhibition at 8 µg/mL: ATCC90029, 8 µg/mL; for inhibition at 16 µg/mL: ATCC90029, 16 µg/mL
Description: as §1, §2, §3

`C[C@@H]1[C@H](O)[C@@H](C)/C=C/C=C/C=C/C=C/C=C/C=C/C=C/[C@H](O[C@@H]2O[C@H](C)[C@@H](O)[C@H](N)[C@@H]2O)C[C@@H]2O[C@](O)(C[C@@H](O)C[C@@H](O)[C@H](O)CC[C@@H](O)C[C@@H](O)CC(=O)O[C@H]1C)C[C@H](O)[C@H]2C(=O)O` [Amphotericin B, reference compound] was tested, and the inhibition at 0.03 µg/mL ([1]; 24 h incubation) was 16.8%, the inhibition at 0.03 µg/mL ([1]; 48 h incubation) was 25% and the inhibition at 0.06 µg/mL ([1]; 24 h incubation) was 71.3%. The inhibition at 0.06 µg/mL ([1]; 48 h incubation) was 23%, the inhibition at 0.12 µg/mL ([1]; 24 h incubation) was 100% and the inhibition at 0.12 µg/mL ([1]; 48 h incubation) was 68%. For the same compound, the inhibition at 0.25 µg/mL ([1]; 24 h incubation) was 100%, the inhibition at 0.25 µg/mL ([1]; 48 h incubation) was 100% and the inhibition at 0.5 µg/mL ([1]; 24 h incubation) was 100%. For the same compound, the inhibition at 0.5 µg/mL ([1]; 48 h incubation) was 100%, the inhibition at 1 µg/mL ([1]; 24 h incubation) was 100% and the inhibition at 1 µg/mL ([1]; 48 h incubation) was 100%. The inhibition at 2 µg/mL ([1]; 24 h incubation) was 100%, the inhibition at 2 µg/mL ([1]; 48 h incubation) was 100% and the inhibition at 4 µg/mL ([1]; 24 h incubation) was 100%. It also gave an inhibition at 4 µg/mL ([1]; 48 h incubation) of 100%, an inhibition at 8 µg/mL ([1]; 24 h incubation) of 100% and an inhibition at 8 µg/mL ([1]; 48 h incubation) of 100%. The inhibition at 16 µg/mL ([1]; 24 h incubation) was 100%, the inhibition at 16 µg/mL ([1]; 48 h incubation) was 100% and the inhibition at 0.03 µg/mL ([2]; 48 h incubation) was 17%. The inhibition at 0.03 µg/mL ([2]; 72 h incubation) was 0%, the inhibition at 0.06 µg/mL ([2]; 48 h incubation) was 32% and the inhibition at 0.06 µg/mL ([2]; 72 h incubation) was 5%. For the same compound, the inhibition at 0.12 µg/mL ([2]; 48 h incubation) was 70%, the inhibition at 0.12 µg/mL ([2]; 72 h incubation) was 44% and the inhibition at 0.25 µg/mL ([2]; 48 h incubation) was 100%. For the same compound, the inhibition at 0.25 µg/mL ([2]; 72 h incubation) was 81.5%, the inhibition at 0.5 µg/mL ([2]; 48 h incubation) was 100% and the inhibition at 0.5 µg/mL ([2]; 72 h incubation) was 100%. The inhibition at 1 µg/mL ([2]; 48 h incubation) was 100%, the inhibition at 1 µg/mL ([2]; 72 h incubation) was 100% and the inhibition at 2 µg/mL ([2]; 48 h incubation) was 100%. The inhibition at 2 µg/mL ([2]; 72 h incubation) was 100%, the inhibition at 4 µg/mL ([2]; 48 h incubation) was 100% and the inhibition at 4 µg/mL ([2]; 72 h incubation) was 100%. It also gave an inhibition at 8 µg/mL ([2]; 48 h incubation) of 100%, an inhibition at 8 µg/mL ([2]; 72 h incubation) of 100% and an inhibition at 16 µg/mL ([2]; 48 h incubation) of 100%. The inhibition at 16 µg/mL ([2]; 72 h incubation) was 100%, the inhibition at 0.03 µg/mL ([3]; 24 h incubation) was 30.3% and the inhibition at 0.03 µg/mL ([3]; 48 h incubation) was 17%. It also gave an inhibition at 0.06 µg/mL ([3]; 24 h incubation) of 56.7%, an inhibition at 0.06 µg/mL ([3]; 48 h incubation) of 32% and an inhibition at 0.12 µg/mL ([3]; 24 h incubation) of 95.2%. For the same compound, the inhibition at 0.12 µg/mL ([3]; 48 h incubation) was 70%, the inhibition at 0.25 µg/mL ([3]; 24 h incubation) was 100% and the inhibition at 0.25 µg/mL ([3]; 48 h incubation) was 100%. It also gave an inhibition at 0.5 µg/mL ([3]; 24 h incubation) of 100%, an inhibition at 0.5 µg/mL ([3]; 48 h incubation) of 100% and an inhibition at 1 µg/mL ([3]; 24 h incubation) of 100%. It also gave an inhibition at 1 µg/mL ([3]; 48 h incubation) of 100%, an inhibition at 2 µg/mL ([3]; 24 h incubation) of 100% and an inhibition at 2 µg/mL ([3]; 48 h incubation) of 100%. It also gave an inhibition at 4 µg/mL ([3]; 24 h incubation) of 100%, an inhibition at 4 µg/mL ([3]; 48 h incubation) of 100% and an inhibition at 8 µg/mL ([3]; 24 h incubation) of 100%. For the same compound, the inhibition at 8 µg/mL ([3]; 48 h incubation) was 100%, the inhibition at 16 µg/mL ([3]; 24 h incubation) was 100% and the inhibition at 16 µg/mL ([3]; 48 h incubation) was 100%.
